According to patent US12581252B2, “Substituted pyrrolo[3,4-b]pyridines as PI3K-α inhibitors” (Relay Therapeutics, Inc., priority 2020, dated 2026):

These compounds were tested against H1047R PIK3CA enzyme (Homo sapiens, UniProt P42336, H1047R) (assay: ADP-Glo Biochemical PIK3CA Kinase Assay).
Protocol: Compounds to be assayed were plated in 16 doses of 1:2 serial dilutions (20 nL volume each well) on a 1536-well plate, and the plate warmed to room temperature. […] To the well was added 1 μL of 200 μM ATP and 20 μM of diC8-PIP2 in Substrate Assay Buffer (50 mM HEPES pH7.4, 50 mM NaCl, 5 mM DTT and 0.03% CHAPS) to start the reaction, and the plate was shaken for 10 seconds, then spun briefly at 1500 rpm, and then incubated for 60 minutes at room temperature. The reaction was stopped by adding 2 μL of ADP-Glo reagent (Promega), and spinning briefly at 1500 rpm, and then incubating for 40 minutes. ADP-Glo Detection reagent (Promega) was added and the plate spun briefly at 1500 rpm, then incubated for 30 minutes.

H1047R PIK3CA enzyme, sequence (P42336 whole entry H1047R): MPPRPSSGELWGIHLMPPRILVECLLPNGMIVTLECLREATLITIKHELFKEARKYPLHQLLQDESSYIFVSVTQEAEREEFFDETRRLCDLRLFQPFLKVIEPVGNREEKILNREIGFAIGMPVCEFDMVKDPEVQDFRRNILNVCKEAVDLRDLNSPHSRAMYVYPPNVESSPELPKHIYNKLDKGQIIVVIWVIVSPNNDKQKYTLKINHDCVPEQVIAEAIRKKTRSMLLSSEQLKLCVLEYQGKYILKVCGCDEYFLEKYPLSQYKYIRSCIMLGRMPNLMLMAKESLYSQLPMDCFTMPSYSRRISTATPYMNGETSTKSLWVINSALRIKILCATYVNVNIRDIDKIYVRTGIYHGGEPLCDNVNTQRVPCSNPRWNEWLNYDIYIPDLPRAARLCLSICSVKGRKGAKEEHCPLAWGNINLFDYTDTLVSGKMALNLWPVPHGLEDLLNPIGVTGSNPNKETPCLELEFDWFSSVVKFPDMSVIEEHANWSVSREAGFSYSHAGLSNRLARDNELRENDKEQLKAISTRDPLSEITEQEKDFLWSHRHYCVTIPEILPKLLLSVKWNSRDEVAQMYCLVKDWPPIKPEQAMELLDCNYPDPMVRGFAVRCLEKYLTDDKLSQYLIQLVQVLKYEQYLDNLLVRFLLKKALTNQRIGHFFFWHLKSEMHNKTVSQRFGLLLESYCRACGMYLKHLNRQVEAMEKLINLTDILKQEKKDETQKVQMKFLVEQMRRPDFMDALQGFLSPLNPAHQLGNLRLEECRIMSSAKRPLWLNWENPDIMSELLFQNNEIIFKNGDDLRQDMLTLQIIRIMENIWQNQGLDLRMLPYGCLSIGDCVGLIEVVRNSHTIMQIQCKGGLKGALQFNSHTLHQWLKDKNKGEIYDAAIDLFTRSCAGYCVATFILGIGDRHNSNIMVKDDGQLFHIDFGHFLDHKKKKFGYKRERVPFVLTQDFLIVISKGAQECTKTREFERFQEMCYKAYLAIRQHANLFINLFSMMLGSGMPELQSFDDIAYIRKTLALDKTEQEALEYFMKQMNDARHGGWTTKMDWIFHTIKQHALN
H1047R PIK3CA enzyme, sequence (P27986 whole entry partner): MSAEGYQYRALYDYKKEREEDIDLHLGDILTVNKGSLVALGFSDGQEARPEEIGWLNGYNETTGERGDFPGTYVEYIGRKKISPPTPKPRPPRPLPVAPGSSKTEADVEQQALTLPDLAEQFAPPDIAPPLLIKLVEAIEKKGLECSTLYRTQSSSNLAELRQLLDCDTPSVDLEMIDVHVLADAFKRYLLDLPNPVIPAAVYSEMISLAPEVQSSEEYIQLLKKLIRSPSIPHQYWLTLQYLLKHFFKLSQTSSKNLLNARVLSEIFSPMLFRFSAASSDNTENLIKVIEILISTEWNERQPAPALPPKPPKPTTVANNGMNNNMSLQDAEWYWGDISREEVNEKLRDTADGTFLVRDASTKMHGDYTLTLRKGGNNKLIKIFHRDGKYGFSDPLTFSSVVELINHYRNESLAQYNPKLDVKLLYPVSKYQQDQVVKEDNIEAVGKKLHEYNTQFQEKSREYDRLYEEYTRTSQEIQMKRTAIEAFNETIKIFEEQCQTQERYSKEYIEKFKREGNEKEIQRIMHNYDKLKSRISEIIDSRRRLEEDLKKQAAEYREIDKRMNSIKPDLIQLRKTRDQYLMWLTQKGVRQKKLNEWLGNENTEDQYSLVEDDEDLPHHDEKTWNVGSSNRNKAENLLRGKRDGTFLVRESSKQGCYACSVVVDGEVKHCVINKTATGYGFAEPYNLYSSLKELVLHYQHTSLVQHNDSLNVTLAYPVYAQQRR

IC50 | SMILES
10 to 100 µM | O=C1N[C@@H](c2cc(F)ccc2Cl)c2c(NC(=O)[C@H]3CCCCN3)cc(-c3ccc4ncnn4c3)cc21 (racemic) [Compound I-1779]
≤ 0.1 µM | O=C(Nc1cc(-c2ccnn2C[C@@H]2CCOC2)cc2c1C(c1cc(F)ccc1Cl)NC2=O)c1cc(F)cc(C(F)(F)F)c1 (single isomer, unassigned) [Compound I-1407]
≤ 0.1 µM | O=C(Nc1cc(C#CC2COC2)cc2c1C(c1cc(F)ccc1Cl)NC2=O)c1cc(F)cc(C(F)(F)F)c1 (stereo not shown) [Compound I-1223]
10 to 100 µM | CSc1cc(-c2ccc3ncnn3c2)cc2c1C(c1cc(F)ccc1Cl)NC2=O (stereo not shown) [Compound I-1892]
≤ 0.1 µM | O=C(Nc1cc(C#Cc2ccn[nH]2)cc2c1C(c1cc(F)ccc1Cl)NC2=O)c1cc(F)cc(C(F)(F)F)c1 (stereo not shown) [Compound I-1244]
≤ 0.1 µM | C[C@H](c1cc(NC(=O)c2cc(F)cc(C(F)(F)F)c2)c2c(c1)C(=O)N[C@H]2c1cc(F)ccc1Cl)S(C)(=O)=O (single isomer, unassigned) [Compound I-1642]
≤ 0.1 µM | Cn1nc(C(F)(F)F)cc1-c1cc(NC(=O)c2cc(F)cc(C(F)(F)F)c2)c2c(c1)C(=O)NC2c1cc(F)ccc1Cl (stereo not shown) [Compound I-1865]
0.1 to 0.5 µM | CN1CCN=C1Nc1cc(NC(=O)c2cc(F)cc(C(F)(F)F)c2)c2c(c1)C(=O)NC2c1cc(F)ccc1Cl (stereo not shown) [Compound I-2298]
0.5 to 1 µM | CC([C@@H]1C[C@@H](O)CN1C(=O)Nc1cccc2c1C(c1cc(F)ccc1Cl)NC2=O)C(F)(F)F (single isomer, unassigned) [Compound I-2286]
10 to 100 µM | O=C1NC(c2cc(F)ccc2Cl)c2c(NC(=O)N3CCSC(C(F)(F)F)C3)cccc21 (stereo not shown) [Compound I-2340]
≤ 0.1 µM | O=C(Nc1cc(C#Cc2cccnc2)cc2c1C(c1cc(F)ccc1Cl)NC2=O)c1cc(F)cc(C(F)(F)F)c1 (stereo not shown) [Compound I-1225]
1 to 10 µM | O=C(Nc1cc(-c2ccc3nnnn3c2)cc2c1[C@@H](c1cc(F)ccc1Cl)NC2=O)c1cc(F)cc(C(F)(F)F)c1 [Compound I-1452]
≤ 0.1 µM | COc1cc2ncnn2cc1-c1cc(NC(=O)c2cc(F)cc(C(F)(F)F)c2)c2c(c1)C(=O)NC2c1cc(F)ccc1Cl (stereo not shown) [Compound I-1700]
10 to 100 µM | O=C1NC(c2cc(F)ccc2Cl)c2c(NC3CCS(=O)(=O)CC3)cc(-c3ccc4ncnn4c3)cc21 (stereo not shown) [Compound I-2010]
10 to 100 µM | O=C1NC(c2cc(F)ccc2Cl)c2c(Nc3ccn(C4CC4)n3)cc(-c3ccc4ncnn4c3)cc21 (stereo not shown) [Compound I-1993]
≤ 0.1 µM | CS(=O)(=O)c1cc(NC(=O)c2cc(F)cc(C(F)(F)F)c2)c2c(c1)C(=O)NC2c1cc(F)ccc1Cl (stereo not shown) [Compound I-1276]

IC50 | SMILES
10 to 100 µM | Cn1c(Cl)cc(C(=O)Nc2cc(Br)cc3c2C(c2cc(F)ccc2Cl)NC3=O)cc1=O (stereo not shown) [Compound I-1209]
1 to 10 µM | Cc1nccn1-c1cc(NC(=O)N2C[C@](O)(C(F)(F)F)c3cc(F)ccc32)c2c(c1)C(=O)N[C@H]2c1cc(F)ccc1Cl (single isomer, unassigned) [Compound I-2664]
≤ 0.1 µM | [2H]C([2H])(c1cc(NC(=O)c2cc(F)cc(C(F)(F)F)c2)c2c(c1)C(=O)NC2c1cc(F)ccc1Cl)S(C)(=O)=O (stereo not shown) [Compound I-1551]
≤ 0.1 µM | O=C(Nc1cc(-c2ccc3ccnn3c2)cc2c1C(c1cc(F)ccc1Cl)NC2=O)c1cc(F)cc(C(F)(F)F)c1 (stereo not shown) [Compound I-1499]
10 to 100 µM | CC(=O)Nc1cccc2c1C(c1cc(F)ccc1Cl)NC2=O (stereo not shown) [Compound I-1581]
1 to 10 µM | O=C1NC(c2cc(F)ccc2Cl)c2c1cc(-c1ccc3ncnn3c1)cc2-n1ccc2c(F)cc(C(F)(F)F)cc2c1=O (stereo not shown) [Compound I-2016]
10 to 100 µM | CS(=O)(=O)c1cc(-c2ccc3ncnn3c2)cc2c1C(c1cc(F)ccc1Cl)NC2=O (stereo not shown) [Compound I-1941]
1 to 10 µM | N#CCCc1cc(NC(=O)N2C[C@H](O)c3cc(F)ccc32)c2c(c1)C(=O)N[C@@H]2c1cc(F)ccc1Cl (single isomer, unassigned) [Compound I-2349]
10 to 100 µM | O=C1NC(c2cc(F)ccc2Cl)c2c(NCC3CCCCC3)cc(Br)cc21 (stereo not shown) [Compound I-1726]
1 to 10 µM | O=C(Nc1cc(-c2ccc3ncnn3c2)cc2c1C(c1cc(F)ccc1Cl)NC2=O)C(=O)c1ccccc1 (stereo not shown) [Compound I-1730]
10 to 100 µM | O=C(Nc1cccc2c1C(CN1CCCC1)NC2=O)c1cc(F)cc(C(F)(F)F)c1 (stereo not shown) [Compound I-1761]
1 to 10 µM | O=C1N[C@H](c2cc(F)ccc2Cl)c2c(NC(=O)N3C[C@](O)(C(F)(F)F)c4ccccc43)cc(Cl)cc21 (single isomer, unassigned) [Compound I-2508]
≤ 0.1 µM | NS(=O)(=O)CCNC(=O)c1cc(NC(=O)c2cc(F)cc(C(F)(F)F)c2)c2c(c1)C(=O)NC2c1cc(F)ccc1Cl (stereo not shown) [Compound I-1469]
0.1 to 0.5 µM | N#CC1(COc2cc(NC(=O)N3C[C@H](O)c4cc(F)ccc43)c3c(c2)C(=O)N[C@H]3c2cc(F)ccc2Cl)CC1 (single isomer, unassigned) [Compound I-2553]
1 to 10 µM | CC(C)(O)c1cc(NC(=O)N2C[C@H](O)c3ccccc32)c2c(c1)C(=O)N[C@@H]2c1cc(F)ccc1Cl (single isomer, unassigned) [Compound I-2121]
10 to 100 µM | O=C1N[C@H](c2cc(F)ccc2Cl)c2c(NC(=O)N3C[C@H](CO)[C@@H](C(F)(F)F)C3)cccc21 (single isomer, unassigned) [Compound I-2278]

More lines, now with the values behind:

SMILES | IC50
Cc1ccc(-c2cc(NC(=O)c3cc(F)cc(Cl)c3)c3c(n2)C(=O)NC3c2cc(F)ccc2Cl)cn1 (stereo not shown) [Compound I-497] | 0.1 to 0.5 µM
O=C(Nc1cc(N2CCC2)nc2c1C(c1cc(F)ccc1Cl)NC2=O)c1cc(F)cc(C(F)(F)F)c1 (stereo not shown) [Compound I-441] | ≤ 0.1 µM
O=C(Nc1cc(Br)cc2c1C(c1cc(F)ccc1F)NC2=O)c1cc(F)cc(C(F)(F)F)c1 (stereo not shown) [Compound I-675] | ≤ 0.1 µM
Cc1ccccc1C1NC(=O)c2cccc(NC(=O)c3nscc3Br)c21 (stereo not shown) [Compound I-463] | 1 to 10 µM
CC(C)(O)c1cc(NC(=O)c2cc(F)cc(C(F)(F)F)c2)c2c(c1)C(=O)N[C@@H]2c1cc(F)ccc1C(F)F [Compound I-263] | 10 to 100 µM
O=C(Nc1cc(B(O)O)cc2c1C(c1cc(F)ccc1Cl)NC2=O)c1cc(F)cc(C(F)(F)F)c1 (stereo not shown) [Compound I-362] | ≤ 0.1 µM
CC1(C(=O)Nc2cc(Br)cc3c2C(c2cc(F)ccc2Cl)NC3=O)CCCc2ccccc21 (stereo not shown) [Compound I-634] | 1 to 10 µM
O=C(Nc1cc(-c2cn[nH]c2)nc2c1[C@H](c1cc(F)ccc1Cl)NC2=O)c1cc(F)cc(C(F)(F)F)c1 [Compound I-194] | ≤ 0.1 µM
O=C(Nc1cc(C(O)(O)C(F)(F)F)cc2c1C(c1cc(F)ccc1Cl)NC2=O)c1cc(F)cc(C(F)(F)F)c1 (stereo not shown) [Compound I-484] | 0.1 to 0.5 µM
CCn1cc(-c2cc(NC(=O)c3cc(F)cc(C(F)(F)F)c3)c3c(n2)C(=O)N[C@@H]3c2cc(F)ccc2Cl)ccc1=O [Compound I-614] | 1 to 10 µM
CP(C)(=O)Cc1cc(NC(=O)c2cc(F)cc(C(F)(F)F)c2)c2c(c1)C(=O)NC2c1cc(F)ccc1Cl (stereo not shown) [Compound I-775] | ≤ 0.1 µM
O=C(Nc1cc(Br)cc2c1C(c1cc(F)ccc1Cl)NC2=O)c1cc(F)ccc1OC(F)(F)F (stereo not shown) [Compound I-788] | 1 to 10 µM
O=C(Nc1cc(Br)cc2c1[C@@H](c1cccc(F)c1Cl)NC2=O)c1cc(F)cc(C(F)(F)F)c1 [Compound I-667] | 1 to 10 µM
Nc1cc(NC(=O)c2cc(F)cc(C(F)(F)F)c2)c2c(n1)C(=O)NC2c1cc(F)ccc1Cl (stereo not shown) [Compound I-273] | 0.1 to 0.5 µM
O=C(Nc1cccc2c(=O)[nH]n(Cc3ccccc3)c12)c1csc2ccccc12 [Compound I-118] | 10 to 100 µM
O=C(Nc1ccnc2c1C(c1ccccc1Cl)NC2=O)c1cc(F)cc(Cl)c1 (stereo not shown) [Compound I-171] | 1 to 10 µM
O=C(Nc1cc(-c2ccc(=O)n(C3CC3)c2)cc2c1[C@H](c1cc(F)ccc1Cl)NC2=O)c1cc(F)cc(C(F)(F)F)c1 [Compound I-745] | ≤ 0.1 µM
N#Cc1cc(F)cc(C(=O)Nc2cc(Br)cc3c2C(c2cc(F)ccc2Cl)NC3=O)c1 (stereo not shown) [Compound I-910] | 1 to 10 µM
O=C1NC(c2cc(F)ccc2Cl)c2c(NC(=O)N3CCCCC3c3ccccc3)cc(Br)cc21 (stereo not shown) [Compound I-772] | 1 to 10 µM
O=C(Nc1cc(NC(=O)C2CCO2)cc2c1C(c1cc(F)ccc1Cl)NC2=O)c1cc(F)cc(C(F)(F)F)c1 (stereo not shown) [Compound I-361] | ≤ 0.1 µM
Cc1ccccc1C1NC(=O)c2nccc(NC(=O)N3CCc4ccc(F)cc43)c21 (stereo not shown) [Compound I-177] | 0.5 to 1 µM
O=C(Nc1cc(NCC(F)F)cc2c1C(c1cc(F)ccc1Cl)NC2=O)c1cc(F)cc(C(F)(F)F)c1 (stereo not shown) [Compound I-275] | ≤ 0.1 µM
Cc1ccccc1[C@@H]1NC(=O)c2cccc(NC(=O)c3nsc4ccccc34)c21 [Compound I-72] | ≤ 0.1 µM
Cc1ccccc1C1NC(=O)c2cccc(NC(=O)c3cc(F)cc(Br)c3)c21 (stereo not shown) [Compound I-391] | 0.5 to 1 µM
O=C(O)c1cc(F)cc(C(=O)Nc2cc(Br)cc3c2C(c2cc(F)ccc2Cl)NC3=O)c1 (stereo not shown) [Compound I-954] | 10 to 100 µM
O=C1NC(c2cc(F)ccc2Cl)c2c(NC(=O)N3CC[C@H](F)[C@@H](F)C3)cc(Br)cc21 (mixture of isomers) [Compound I-720] | 10 to 100 µM
CC(C)(O)C(=O)Nc1cc(NC(=O)c2cc(F)cc(C(F)(F)F)c2)c2c(c1)C(=O)NC2c1cc(F)ccc1Cl (stereo not shown) [Compound I-591] | ≤ 0.1 µM
Cn1cc(-c2cc(NC(=O)c3cc(F)cc(C(F)(F)F)c3)c3c(n2)C(=O)NC3c2cc(F)ccc2Cl)cn1 (stereo not shown) [Compound I-162] | ≤ 0.1 µM
O=C1NC(c2cc(F)ccc2Cl)c2c(NC(=O)N3CCC(c4ccccc4)C3)cc(Br)cc21 (racemic) [Compound I-598] | 1 to 10 µM
